In patent publication US20240208968A1, “ALPHA V BETA 6 AND ALPHA V BETA 1 INTEGRIN INHIBITORS AND USES THEREOF” (DiCE Molecules SV, Inc., priority 2021, published 2024):
Counter-ions that a name gives are not always drawn.

Key:
αvβ1 = αvβ1 (Homo sapiens, UniProt P05556+P06756); assay: Solid Phase Integrin αvβ1 Assay; type: binding
In short: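 Wells coated with 1 µg/mL recombinant TGFb1-LAP and blocked with 2% BSA/TBST, 1 mM MnCl2; αvβ1 (added at 0.2 µg/mL) and compound incubated 90 min at room temperature. Bound integrin detected by streptavidin-HRP (20 min) and TMB after Mn-containing washes; IC50 by four-parameter logistic fit.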

αvβ6 = αvβ6 (Homo sapiens, UniProt P06756+P18564); assay: Solid Phase Integrin αvβ6 Assay; type: binding
In short: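 Plates coated with 1 μg/mL recombinant TGFb1-LAP; compounds and αvβ6 (0.2 μg/mL diluted stock) incubated 1 h at room temperature in 2% BSA/TBST with 1 mM MnCl2. Bound integrin detected with streptavidin-HRP and TMB; IC50 from four-parameter logistic fits.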

Sequence of αvβ6 (P06756 31-992 limits assumed): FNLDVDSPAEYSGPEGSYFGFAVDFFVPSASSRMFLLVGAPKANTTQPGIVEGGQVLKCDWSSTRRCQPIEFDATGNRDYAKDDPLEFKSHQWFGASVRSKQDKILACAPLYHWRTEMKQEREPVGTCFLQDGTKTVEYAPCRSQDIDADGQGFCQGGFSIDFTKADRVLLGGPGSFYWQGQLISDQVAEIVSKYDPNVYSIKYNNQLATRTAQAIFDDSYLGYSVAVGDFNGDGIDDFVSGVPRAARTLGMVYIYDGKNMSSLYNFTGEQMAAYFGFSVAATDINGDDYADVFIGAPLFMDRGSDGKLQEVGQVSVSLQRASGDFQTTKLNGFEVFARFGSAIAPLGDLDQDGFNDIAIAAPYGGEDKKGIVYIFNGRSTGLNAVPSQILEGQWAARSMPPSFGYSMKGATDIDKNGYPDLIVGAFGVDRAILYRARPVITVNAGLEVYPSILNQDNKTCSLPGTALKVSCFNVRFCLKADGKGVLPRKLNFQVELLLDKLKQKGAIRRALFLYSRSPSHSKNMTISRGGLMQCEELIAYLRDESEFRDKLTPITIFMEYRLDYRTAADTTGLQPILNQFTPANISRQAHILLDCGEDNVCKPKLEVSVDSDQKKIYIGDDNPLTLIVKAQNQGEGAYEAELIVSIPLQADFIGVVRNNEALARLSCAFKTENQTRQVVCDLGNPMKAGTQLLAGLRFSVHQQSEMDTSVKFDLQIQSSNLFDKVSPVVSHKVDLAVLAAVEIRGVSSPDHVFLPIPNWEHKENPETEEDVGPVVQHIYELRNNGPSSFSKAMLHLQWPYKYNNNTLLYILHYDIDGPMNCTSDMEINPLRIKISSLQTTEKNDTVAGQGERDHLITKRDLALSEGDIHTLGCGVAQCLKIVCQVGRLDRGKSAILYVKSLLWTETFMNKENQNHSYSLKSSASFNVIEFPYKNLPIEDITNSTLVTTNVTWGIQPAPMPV
Sequence of αvβ6 (P18564 22-707 limits assumed): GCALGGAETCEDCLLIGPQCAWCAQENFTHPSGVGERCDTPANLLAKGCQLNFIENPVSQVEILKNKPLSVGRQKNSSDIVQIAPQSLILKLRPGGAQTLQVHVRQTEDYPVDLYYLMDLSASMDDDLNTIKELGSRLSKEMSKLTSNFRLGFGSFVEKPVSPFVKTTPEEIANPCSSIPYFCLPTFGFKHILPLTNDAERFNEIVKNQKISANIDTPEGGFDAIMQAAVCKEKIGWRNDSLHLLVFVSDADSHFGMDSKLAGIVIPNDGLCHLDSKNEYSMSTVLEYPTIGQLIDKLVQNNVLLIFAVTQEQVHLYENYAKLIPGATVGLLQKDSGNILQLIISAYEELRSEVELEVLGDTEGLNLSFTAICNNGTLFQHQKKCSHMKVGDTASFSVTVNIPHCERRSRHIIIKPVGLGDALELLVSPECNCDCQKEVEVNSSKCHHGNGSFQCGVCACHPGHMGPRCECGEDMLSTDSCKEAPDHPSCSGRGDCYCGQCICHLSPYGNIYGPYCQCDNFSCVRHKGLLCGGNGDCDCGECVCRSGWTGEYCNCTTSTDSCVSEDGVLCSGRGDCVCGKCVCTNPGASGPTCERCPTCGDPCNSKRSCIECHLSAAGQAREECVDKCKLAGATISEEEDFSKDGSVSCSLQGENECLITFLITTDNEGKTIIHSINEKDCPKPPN
Sequence of αvβ1 (P06756 31-992 limits assumed): as the sequence (P06756 31-992 limits assumed) above
Sequence of αvβ1 (P05556 21-728 limits assumed): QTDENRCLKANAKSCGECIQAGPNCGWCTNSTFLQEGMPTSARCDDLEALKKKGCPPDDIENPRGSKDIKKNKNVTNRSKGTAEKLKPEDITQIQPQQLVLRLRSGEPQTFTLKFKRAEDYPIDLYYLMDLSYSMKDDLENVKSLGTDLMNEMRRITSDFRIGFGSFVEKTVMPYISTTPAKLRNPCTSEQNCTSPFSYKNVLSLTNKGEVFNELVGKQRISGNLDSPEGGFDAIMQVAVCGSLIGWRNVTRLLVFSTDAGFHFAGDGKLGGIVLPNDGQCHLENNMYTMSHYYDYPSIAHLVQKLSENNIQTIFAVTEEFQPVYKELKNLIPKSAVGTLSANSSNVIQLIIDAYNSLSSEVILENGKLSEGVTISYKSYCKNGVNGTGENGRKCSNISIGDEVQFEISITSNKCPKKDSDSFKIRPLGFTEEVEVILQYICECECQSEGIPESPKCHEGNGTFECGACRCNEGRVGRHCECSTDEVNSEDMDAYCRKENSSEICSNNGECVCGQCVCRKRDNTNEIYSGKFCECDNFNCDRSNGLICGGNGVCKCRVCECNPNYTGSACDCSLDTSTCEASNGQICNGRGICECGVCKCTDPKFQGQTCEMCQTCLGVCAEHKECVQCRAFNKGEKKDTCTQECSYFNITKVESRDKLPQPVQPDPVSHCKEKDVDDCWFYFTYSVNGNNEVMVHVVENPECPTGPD

| Structure (SMILES) | IC50 (αvβ1) | IC50 (αvβ6) |
| --- | --- | --- |
| O=C(NC[C@@H](C(=O)O)c1ccc2ccccc2c1)[C@@H]1CCCN(CCCc2ccc3c(n2)NCCC3)C1 [Compound 249-B, 2-(naphthalen-2-yl)-3-((R)-1-(3-(5,6,7,8-tetrahydro-1,8-naphthyridin-2-yl)propyl)piperidine-3-carboxamido)propanoic acid] | < 100 nM | < 100 nM |
| O=C(NC[C@@H](Nc1cc(-c2ccccc2)ncn1)C(=O)O)[C@@H]1CCCN(CCCc2ccc3c(n2)NCCC3)C1 [Compound 449] | < 100 nM | < 100 nM |
| O=C(NC1([C@H](C(=O)O)c2cccc(-c3ccccc3)c2)CC1)[C@@H]1CCCN(CCCc2ccc3c(n2)NCCC3)C1 [Compound 301-A, 2-([1,1′-biphenyl]-3-yl)-2-(1-((R)-1-(3-(5,6,7,8-tetrahydro-1,8-naphthyridin-2-yl)propyl)piperidine-3-carboxamido)cyclopropyl)acetic acid] | > 1000 nM | > 1000 nM |
| O=C(CC[C@H](C(=O)O)c1ccccc1)N[C@H]1CCN(CCCCc2ccc3c(n2)NCCC3)C1 [Compound 422] | > 1000 nM | > 1000 nM |
| CC1(C)CCN(c2cccc([C@H](CC(=O)O)NC(=O)[C@@H]3CCCN(CCCc4ccc5c(n4)NCCC5)C3)c2)CC1 [Compound 237, (S)-3-(3-(4,4-dimethylpiperidin-1-yl)phenyl)-3-((R)-1-(3-(5,6,7,8-tetrahydro-1,8-naphthyridin-2-yl)propyl)piperidine-3-carboxamido)propanoic acid] | < 100 nM | < 100 nM |
| O=C(O)C[C@H](CO[C@@H]1CCCN(CCCc2ccc3c(n2)NCCC3)C1)c1ccc(-c2ccccc2)cc1 [Compound 458] | < 100 nM | < 100 nM |
| O=C(O)C(c1ccccc1)C(O)CO[C@@H]1CCCN(CCCc2ccc3c(n2)NCCC3)C1 (stereo partly drawn) [Compound 610] | > 1000 nM | > 1000 nM |
| C[C@H]1C[C@@H](C(=O)N[C@@H](CC(=O)O)c2ccccc2)CN(CCCc2ccc3c(n2)NCCC3)C1 [Compound 552] | 100 to 1000 nM | 100 to 1000 nM |
| O=C(NC[C@H](C(=O)O)c1ccccc1)[C@@H]1CCCN(CCCc2ccc3c(n2)NCCC3)C1 [Compound 247, (R)-2-phenyl-3-((R)-1-(3-(5,6,7,8-tetrahydro-1,8-naphthyridin-2-yl)propyl)piperidine-3-carboxamido)propanoic acid] | < 100 nM | < 100 nM |
| O=C(O)C[C@H](NC(=O)[C@@H]1CCCN(CCCc2ccc3c(n2)NCCC3)C1)c1cccc([C@H]2CCOC2)c1 [Compound 534] | < 100 nM | < 100 nM |
| O=C(CC[C@H](NC(=O)[C@@H]1CCCN1S(=O)(=O)c1ccccc1)C(=O)O)N[C@H]1CCN(CCCCc2ccc3c(n2)NCCC3)C1 [Compound 435] | < 100 nM | 100 to 1000 nM |
| O=C(NC[C@@H](C(=O)O)c1ccccc1-c1ccccc1)[C@@H]1CCCN(CCCc2ccc3c(n2)NCCC3)C1 [Compound 340] | 100 to 1000 nM | 100 to 1000 nM |
| Cc1c[s+]([O-])c2ncnc(N[C@@H](CCO[C@@H]3CCCN(CCCc4ccc5c(n4)NCCC5)C3)C(=O)O)c12 (stereo partly drawn) [Compound 509] | < 100 nM | < 100 nM |
| O=C(O)C[C@H](NC(=O)[C@H]1CCCN(C(=O)CCc2ccc3c(n2)NCCC3)C1)c1ccccc1 [Compound 286, (S)-3-phenyl-3-((S)-1-(3-(5,6,7,8-tetrahydro-1,8-naphthyridin-2-yl)propanoyl)piperidine-3-carboxamido)propanoic acid hydrochloride] | > 1000 nM | > 1000 nM |
| O=C(N[C@@H](CNC(=O)[C@@H]1CCCN(CCCc2ccc3c(n2)NCCC3)C1)C(=O)O)c1ccccc1 [Compound 544] | < 100 nM | < 100 nM |
| O=C(NC[C@H](C(=O)O)c1cccc2n[nH]cc12)[C@@H]1CCCN(CCCc2ccc3c(n2)NCCC3)C1 [Compound 318] | 100 to 1000 nM | > 1000 nM |
| O=C(O)[C@H](CCO[C@@H]1CCCN(CCCc2ccc3c(n2)NCCC3)C1)NC(=O)C12CCC(CC1)CC2 [Compound 333] | 100 to 1000 nM | 100 to 1000 nM |
| O=C(NC[C@H](C(=O)O)c1ccc(F)c(-c2ccccc2)c1F)[C@@H]1CCCN(CCCc2ccc3c(n2)NCCC3)C1 [Compound 622] | 100 to 1000 nM | 100 to 1000 nM |
| O=C(O)[C@H](CCO[C@H]1CCCN(CCCc2ccc3c(n2)NCCC3)C1)Nc1ncnc2ccccc12 [Compound 446] | 100 to 1000 nM | < 100 nM |
| O=C(O)[C@@H](CCO[C@@H]1CCCN(CCCc2ccc3c(n2)NCCC3)C1)Nc1ncnc2ccsc12 [Compound 511] | < 100 nM | < 100 nM |
| C[C@H]1C[C@@H](C(=O)NC[C@H](C(=O)O)c2ccc3ccccc3c2)CN(CCCc2ccc3c(n2)NCCC3)C1 [Compound 633] | < 100 nM | < 100 nM |
| C[C@@H]1C[C@@H](C(=O)N[C@@H](CC(=O)O)c2ccccc2)CN(CCCc2ccc3c(n2)NCCC3)C1 [Compound 553] | 100 to 1000 nM | 100 to 1000 nM |
| C[C@@H]1CN(c2cccc([C@H](CC(=O)O)NC(=O)[C@@H]3CCCN(CCCc4ccc5c(n4)NCCC5)C3)c2)C[C@H](C)O1 [Compound 236, (S)-3-(3-((2S,6R)-2,6-dimethylmorpholino)phenyl)-3-((R)-1-(3-(5,6,7,8-tetrahydro-1,8-naphthyridin-2-yl)propyl)piperidine-3-carboxamido)propanoic acid] | < 100 nM | < 100 nM |
| O=C(CC[C@@H](C(=O)O)c1ccccc1)N[C@@H]1CCN(CCCCc2ccc3c(n2)NCCC3)C1 [Compound 421] | > 1000 nM | > 1000 nM |
| O=C(O)C[C@H](NC(=O)[C@@H]1CCCN(CCCc2ccc3c(n2)NCCC3)C1)c1cccc(N2CCCCC2)c1 [Compound 232, (S)-3-(3-(piperidin-1-yl)phenyl)-3-((R)-1-(3-(5,6,7,8-tetrahydro-1,8-naphthyridin-2-yl)propyl)piperidine-3-carboxamido)propanoic acid hydrochloride] | < 100 nM | < 100 nM |
| Cc1csc2ncnc(N[C@H](CCO[C@@H]3CCCN(CCCc4ccc5c(n4)NCCC5)C3)C(=O)O)c12 [Compound 502] | < 100 nM | < 100 nM |
| O=C(NC[C@H](C(=O)O)c1cccc2cnn([C@H]3CCOC3)c12)[C@@H]1CCCN(CCCc2ccc3c(n2)NCCC3)C1 [Compound 321] | < 100 nM | 100 to 1000 nM |

Other lines, results leading:

| IC50 (αvβ1) | IC50 (αvβ6) | Structure (SMILES) |
| --- | --- | --- |
| 100 to 1000 nM | 100 to 1000 nM | O=C(NC[C@H](C(=O)O)c1cccc(C2CC2)c1)[C@@H]1CCCN(CCCc2ccc3c(n2)NCCC3)C1 [Compound 258-A, 2-(3-cyclopropylphenyl)-3-((R)-1-(3-(5,6,7,8-tetrahydro-1,8-naphthyridin-2-yl)propyl)piperidine-3-carboxamido)propanoic acid] |
| < 100 nM | < 100 nM | O=C(NC[C@H](C(=O)O)c1cccc2cn([C@@H]3CCC(F)(F)C3)nc12)[C@@H]1CCCN(CCCc2ccc3c(n2)NCCC3)C1 [Compound 623] |
| < 100 nM | < 100 nM | O=C(N[C@@H](CNC(=O)[C@@H]1CCCN(CCCc2ccc3c(n2)NCCC3)C1)C(=O)O)C1CCC(F)(F)CC1 [Compound 366] |
| < 100 nM | < 100 nM | O=C(O)C[C@H](NC(=O)[C@@H]1CCCN(CCCc2ccc3c(n2)NCCC3)C1)c1ccc(F)c(C2CC2)c1 [Compound 244-A, 3-(3-cyclopropyl-4-fluorophenyl)-3-((R)-1-(3-(5,6,7,8-tetrahydro-1,8-naphthyridin-2-yl)propyl)piperidine-3-carboxamido)propanoic acid] |
| 100 to 1000 nM | 100 to 1000 nM | C[C@@H]1C[C@H](C(=O)NC[C@@H](C(=O)O)c2ccc3ccccc3c2)CN(CCCc2ccc3c(n2)NCCC3)C1 [Compound 641] |
| > 1000 nM | < 100 nM | O=C(O)[C@@H](CCO[C@@H]1CCCN(CCCc2ccc3c(n2)NCCC3)C1)c1cccc(-c2ccccc2)c1 [Compound 330] |
| 100 to 1000 nM | < 100 nM | O=C(O)C[C@@H](CO[C@@H]1CCCN(CCCc2ccc3c(n2)NCCC3)C1)c1cccc(-n2cccn2)c1 [Compound 515] |
| > 1000 nM | > 1000 nM | O=C(O)C[C@H](NC[C@@H]1CCCN(CCCc2ccc3c(n2)NCCC3)C1)c1cccc(Br)c1 [Compound 531] |
| > 1000 nM | > 1000 nM | O=C(O)C[C@H](O[C@@H]1CCCN(CCCCc2ccc3c(n2)NCCC3)C1)c1ccccc1 [Compound 393] |
| < 100 nM | > 1000 nM | O=C(O)[C@@H](CCO[C@@H]1CCCN(CCCc2ccc3c(n2)NCCC3)C1)NC(=O)[C@@H]1CCCN1S(=O)(=O)c1ccccc1 [Compound 495] |
| 100 to 1000 nM | < 100 nM | C[C@@H]1C[C@H](C(=O)NC[C@H](C(=O)O)c2cccc(-c3ccccc3)c2)CN(CCCc2ccc3c(n2)NCCC3)C1 [Compound 637] |
| > 1000 nM | 100 to 1000 nM | O=C(N[C@H](CCO[C@@H]1CCCN(CCCc2ccc3c(n2)NCCC3)C1)C(=O)O)c1cc(Cl)cc(Cl)c1 [Compound 496] |
| 100 to 1000 nM | > 1000 nM | O=C(O)[C@H](CCO[C@@H]1CCCN(Cc2ccc3c(n2)NCCC3)C1)NC(=O)C12CCC(CC1)CC2 [Compound 397] |
| < 100 nM | < 100 nM | O=C(O)C[C@H](NC(=O)[C@@H]1CCCN(CCCc2ccc3c(n2)NCCC3)C1)c1cccc(Oc2ccccc2)c1 [Compound 209-A, 3-(3-phenoxyphenyl)-3-((R)-1-(3-(5,6,7,8-tetrahydro-1,8-naphthyridin-2-yl)propyl)piperidine-3-carboxamido)propanoic acid] |
| < 100 nM | < 100 nM | O=C(O)CC(CO[C@@H]1CCCN(CCCc2ccc3c(n2)NCCC3)C1)c1ccccc1 (stereo partly drawn) [Compound 297, 3-phenyl-4-(((R)-1-(3-(5,6,7,8-tetrahydro-1,8-naphthyridin-2-yl)propyl)piperidin-3-yl)oxy)butanoic acid hydrochloride] |
